Values of other authors, collected in US7368585B2, “Synthetic techniques and intermediates for polyhydroxy dienyl lactones and mimics thereof” (The Trustees Of The University Of Pennsylvania, priority 1996, dated 2008).

Legend:
[1] = tested on: mitotic spindle microtubules; conditions: compared with taxol
[2] = tested on: murine splenocytes; conditions: in vitro
[3] = tested on: cell development at the M phase; conditions: by binding and stabilizing mitotic spindle microtubules
[4] = tested on: murine splenocytes; conditions: in vitro; remark: listed apart in the source
[5] = tested on: graft-vs.-host splenomegaly response; conditions: in vivo
[6] = tested on: two-way mixed-lymphocyte reaction; conditions: in vitro

C=C/C=C\[C@H](C)[C@H](OC(N)=O)[C@@H](C)[C@H](O)[C@@H](C)C/C(C)=C\[C@H](C)[C@@H](O)[C@@H](C)/C=C\[C@@H](O)C[C@@H]1OC(=O)[C@H](C)[C@@H](O)[C@H]1C [(+)-discodermolide]
microtubule binding affinity relative to taxol [1]: much higher | suppression of concanavalin A-induced mitogenesis of murine splenocytes [2]: suppresses | cell cycle effect [3]: arrests cell development at the M phase | associated cytotoxicity [4]: no associated cytotoxicity | potency in graft-vs.-host splenomegaly response relative to cyclosporin A and FK506 ([5]; F1 recipient mice): intermediate between those of cyclosporin A and FK506 | suppression of graft-vs.-host splenomegaly response ([5]; injection of parental splenocytes into F1 recipient mice): suppresses | suppression of the two-way mixed-lymphocyte reaction [6]: suppresses
